Data: US9408386B2, “Use of succinate dehydrogenase inhibitors (SDHIs) for controlling wood diseases in grape” (BAYER CROPSCIENCE AG, priority 2012, dated 2016)

Columns and labels:
Assay type in all cases: cell-based
Botryosphaeria dothidea = experiment: In vitro mycelium growth test on malt agar medium; conditions: 50 ppm in malt agar, 22° C., colony diameter, Abbott formula
Procedure: (§1) This test is carried out on representative fungi found in grape plants showing “Esca” Symptoms
(§2) Formulated products are diluted in sterilized dematerialized water at the desired concentration and added to malt agar medium. Fluopyram and penflufen were used as a […] formulation formulation containing 100 g/l active ingredient (SC 100), Bixafen as a emulsifiable concentrate formulation containing 200 g/l active ingredient (EC 200), and tebuconazole as a oil in water emulsion formulation containing 250 g/l active ingredient (EW 250). The medium containing the product to be tested is poured in 90 mm diameter Petri dishes. Each dish is then inoculated using a 5 mm diameter mycelium plug taken, using a cork borer, from the active growing edge of a colony.
(§3) Inoculated Petri dishes are then incubated at 22° C. with a photoperiod of 12 h. The incubation period corresponds to the time required for the fungus to invade the entire surface of the growth medium. At that time, mycelium growth is evaluated by calculating the mean of two perpendicular measure of the colony diameter. A percentage of efficacy is then calculated (Abbott formula).
(§4) The concentration of 50 ppm corresponds approximately to about 50 g/ha when an application amount of 1000 l water per hectare is used.

Botryosphaeria obtusa = experiment: In vitro mycelium growth test on malt agar medium; conditions: 50 ppm in malt agar, 22° C., colony diameter, Abbott formula
Procedure: as §1, §2, §3, §4

Eutypa lata = experiment: In vitro mycelium growth test on malt agar medium; conditions: 50 ppm in malt agar, 22° C., colony diameter, Abbott formula
Procedure: as §1, §2, §3, §4

Formitiporia mediteranea = experiment: In vitro mycelium growth test on malt agar medium
Procedure: as §1, §2, §3, §4

[1] = test system: Phaemoniella chlamydospora; experiment: In vitro mycelium growth test on malt agar medium
Procedure: as §1, §2, §3, §4

[2] = test system: Phaeoacremonium aleophilum; experiment: In vitro mycelium growth test on malt agar medium; conditions: 50 ppm in malt agar, 22° C., colony diameter, Abbott formula
Procedure: as §1, §2, §3, §4

[3] = test system: several fungi belonging to the community usually found in plants showing Esca symptoms; experiment: In vitro mycelium growth test, summary over the Esca fungi community; conditions: at 50 ppm
Procedure: as §1, §2, §3, §4

[4] = Formitiporia mediteranea, 50 ppm in malt agar, 22° C., colony diameter, Abbott formula
[5] = Phaemoniella chlamydospora, 50 ppm in malt agar, 22° C., colony diameter, Abbott formula

SMILES	In Vitro Efficacy Mycellium** (Botryosphaeria dothidea)	In Vitro Efficacy Mycellium** (Botryosphaeria obtusa)	In Vitro Efficacy Mycellium** (Eutypa lata)	In Vitro Efficacy Mycellium** (Formitiporia mediteranea; [4])	In Vitro Efficacy Mycellium** [1, 5]	In Vitro Efficacy Mycellium** [2]	reduction of several fungi of the Esca community [3]	In Vitro Efficacy Mycellium** (Formitiporia mediteranea; 50 ppm)	In Vitro Efficacy Mycellium** ([1]; 50 ppm)
Cn1cc(C(=O)Nc2ccc(F)cc2-c2ccc(Cl)c(Cl)c2)c(C(F)F)n1 [Bixafen, bixafen]	86%	85%	100%	100%	100%	69%	significant reduction	–	–
O=C(NCCc1ncc(C(F)(F)F)cc1Cl)c1ccccc1C(F)(F)F [Fluopyram, N-[2-[3-chloro-5-(trifluoromethyl)-2-pyridinyl]ethyl]-2-(trifluoromethyl)benzamide]	55%	65%	61%	–	–	35%	significant reduction	10%	59%
Cc1nn(C)c(F)c1C(=O)Nc1ccccc1C(C)CC(C)C (stereo not drawn) [Penflufen, penflufen]	64%	65%	83%	100%	75%	62%	significant reduction	–	–
CC(C)(C)C(O)(CCc1ccc(Cl)cc1)Cn1cncn1 (stereo not drawn) [Tebuconazole, tebuconazole]	100%	100%	100%	–	–	100%	–	100%	100%
